Experimental data reported in ChEMBL document CHEMBL1201862, “PubChem BioAssay data set” (2004).
Activity calls are given as the source filed them.

Tests used:
cells [1] = type: functional, cell-based; conditions: PPC-1
MDA-MB-435 = experiment: cells; type: functional, cell-based; conditions: Homo sapiens
Bcl-2-like protein 10 = Bcl-2-like protein 10 (Homo sapiens, UniProt Q9HD36); experiment: displacers of TR3 peptide from Bcl-B, primary screen, selectivity assay for Bfl-1 inhibitor project, biochemical, fluorescence polarization, FITC-TR3 peptide (AID 748);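 further: fluorescence polarization from a fluorescein-labelled TR3 peptide binding purified Bcl-B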
SUMO-activating enzyme [2] = target: T1, SUMO-activating enzyme (Homo sapiens, UniProt Q9UBT2); experiment: SUMOylation inhibitor hit validation, confirmation, SUMOylation inhibitor project, biochemical, AlphaScreen (AID 2018); type: functional
SUMO-activating enzyme [3] = target: T1, SUMO-activating enzyme; experiment: inhibitors of in vitro SUMOylation cascade, primary screen, biochemical, HTRF, uHTS (AID 2006); type: protein-complex assay
[4] = growth suppression of beta-catenin-knockout colon cells, dose response, cell-based, HCT116, human colon tumor (AID 1045); type: functional;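 further: HCT116 colon tumor cells with beta catenin knocked out; cells exposed to compound for 60 hours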
[5] = growth suppression of PTEN-null colon cells, dose response, cell-based, HCT116 PTEN knockout (AID 1047); type: functional;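 further: HCT116 colon tumor cells with PTEN knocked out; cells exposed to compound for 60 hours before readout; potency for loss of cell viability measured by luminescence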
[6] = target: NACHT, LRR and PYD domains-containing protein 3 (Homo sapiens, UniProt Q96P20); experiment: NALP3 inhibitors in yeast, dose response, luminescent (AID 488799); type: functional
cells [7] = type: functional, cell-based; conditions: HEK-CNG
[8] = cytotoxicity in HEK-293T cells, dose response, cytotoxicity control for BCR NF-kB inhibitor project, luminescence, B-cell screen hits (AID 489021); type: functional, cell-based;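 further: HEK-293T cells carrying an NF-kB luciferase reporter; cells exposed to compound for about 14 hours before viability readout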
Galanin receptor type 2 = Galanin receptor type 2 (Homo sapiens, UniProt O43603); experiment: Dose Response cell-based high-throughput screening assay to identify antagonists of galanin receptor 2 (GALR2). [Related pubchem assays: 828, 866 ]; type: functional
Galanin receptor type 3 = target: T2, Galanin receptor type 3 (Homo sapiens, UniProt O60755); experiment: Fluorescence-based cell-based primary high throughput dose response assay to identify antagonists of the Galanin Receptor 3 (GalR3).; type: functional
T2 sequence (O60755 whole entry): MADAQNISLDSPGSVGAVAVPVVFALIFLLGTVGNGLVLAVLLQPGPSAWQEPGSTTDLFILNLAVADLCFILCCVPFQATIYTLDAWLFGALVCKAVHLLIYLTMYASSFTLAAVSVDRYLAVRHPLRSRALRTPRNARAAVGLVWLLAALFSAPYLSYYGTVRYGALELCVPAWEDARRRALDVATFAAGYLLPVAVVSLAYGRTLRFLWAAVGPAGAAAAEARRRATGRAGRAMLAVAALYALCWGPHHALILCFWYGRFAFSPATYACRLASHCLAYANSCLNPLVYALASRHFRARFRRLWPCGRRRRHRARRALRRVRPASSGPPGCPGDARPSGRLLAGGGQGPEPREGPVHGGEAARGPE

INS1 = experiment: beta cell apoptosis inhibitors, cytokine rescue, dose response, luminescence, retest (AID 449756); type: functional, cell-based; conditions: Rattus norvegicus;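 further: cell death triggered by IL-1 beta plus TNF-alpha plus IFN-gamma mixture; protective hits raise ATP signal compared with cytokine alone wells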

T1 sequence (Q9UBE0 whole entry): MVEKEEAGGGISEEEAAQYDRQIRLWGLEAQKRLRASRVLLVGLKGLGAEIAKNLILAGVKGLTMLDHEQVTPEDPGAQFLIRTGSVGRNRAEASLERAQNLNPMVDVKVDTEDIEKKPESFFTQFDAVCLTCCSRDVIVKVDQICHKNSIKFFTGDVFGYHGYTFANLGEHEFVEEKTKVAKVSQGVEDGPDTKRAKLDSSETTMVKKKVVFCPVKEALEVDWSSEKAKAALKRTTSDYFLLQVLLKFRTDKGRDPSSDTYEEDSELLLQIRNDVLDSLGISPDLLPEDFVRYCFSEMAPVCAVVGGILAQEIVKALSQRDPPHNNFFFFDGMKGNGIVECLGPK
T1 sequence (Q9UBT2 whole entry): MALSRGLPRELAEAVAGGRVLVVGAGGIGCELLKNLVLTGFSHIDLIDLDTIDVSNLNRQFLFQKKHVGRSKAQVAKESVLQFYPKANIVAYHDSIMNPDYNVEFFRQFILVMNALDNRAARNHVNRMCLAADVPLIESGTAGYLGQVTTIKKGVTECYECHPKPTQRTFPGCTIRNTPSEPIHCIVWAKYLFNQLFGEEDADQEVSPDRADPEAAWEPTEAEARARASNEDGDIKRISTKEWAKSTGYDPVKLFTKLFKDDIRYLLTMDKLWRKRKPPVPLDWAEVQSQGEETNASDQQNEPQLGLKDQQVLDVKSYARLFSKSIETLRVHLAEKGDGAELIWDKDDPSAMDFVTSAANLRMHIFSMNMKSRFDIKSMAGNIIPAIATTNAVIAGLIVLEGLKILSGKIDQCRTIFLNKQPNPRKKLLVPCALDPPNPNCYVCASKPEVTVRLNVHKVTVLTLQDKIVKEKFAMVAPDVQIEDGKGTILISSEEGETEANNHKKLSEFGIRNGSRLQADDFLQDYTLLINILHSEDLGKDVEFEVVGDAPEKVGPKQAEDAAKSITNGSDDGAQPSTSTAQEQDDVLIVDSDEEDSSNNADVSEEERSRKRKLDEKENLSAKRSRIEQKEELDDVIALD
Galanin receptor type 2, sequence (O43603 whole entry): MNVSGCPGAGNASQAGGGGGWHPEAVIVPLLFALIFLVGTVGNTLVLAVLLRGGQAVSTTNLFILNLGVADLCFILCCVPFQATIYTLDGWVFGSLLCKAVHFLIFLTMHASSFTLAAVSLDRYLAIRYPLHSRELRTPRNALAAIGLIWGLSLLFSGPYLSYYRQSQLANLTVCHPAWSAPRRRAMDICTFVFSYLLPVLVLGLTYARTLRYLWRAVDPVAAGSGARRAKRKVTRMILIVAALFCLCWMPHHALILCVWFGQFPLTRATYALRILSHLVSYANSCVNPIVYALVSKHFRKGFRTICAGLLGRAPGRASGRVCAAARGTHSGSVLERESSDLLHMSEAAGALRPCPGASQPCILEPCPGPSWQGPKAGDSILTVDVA
NACHT, LRR and PYD domains-containing protein 3, sequence (Q96P20 whole entry, the tested form may be a part): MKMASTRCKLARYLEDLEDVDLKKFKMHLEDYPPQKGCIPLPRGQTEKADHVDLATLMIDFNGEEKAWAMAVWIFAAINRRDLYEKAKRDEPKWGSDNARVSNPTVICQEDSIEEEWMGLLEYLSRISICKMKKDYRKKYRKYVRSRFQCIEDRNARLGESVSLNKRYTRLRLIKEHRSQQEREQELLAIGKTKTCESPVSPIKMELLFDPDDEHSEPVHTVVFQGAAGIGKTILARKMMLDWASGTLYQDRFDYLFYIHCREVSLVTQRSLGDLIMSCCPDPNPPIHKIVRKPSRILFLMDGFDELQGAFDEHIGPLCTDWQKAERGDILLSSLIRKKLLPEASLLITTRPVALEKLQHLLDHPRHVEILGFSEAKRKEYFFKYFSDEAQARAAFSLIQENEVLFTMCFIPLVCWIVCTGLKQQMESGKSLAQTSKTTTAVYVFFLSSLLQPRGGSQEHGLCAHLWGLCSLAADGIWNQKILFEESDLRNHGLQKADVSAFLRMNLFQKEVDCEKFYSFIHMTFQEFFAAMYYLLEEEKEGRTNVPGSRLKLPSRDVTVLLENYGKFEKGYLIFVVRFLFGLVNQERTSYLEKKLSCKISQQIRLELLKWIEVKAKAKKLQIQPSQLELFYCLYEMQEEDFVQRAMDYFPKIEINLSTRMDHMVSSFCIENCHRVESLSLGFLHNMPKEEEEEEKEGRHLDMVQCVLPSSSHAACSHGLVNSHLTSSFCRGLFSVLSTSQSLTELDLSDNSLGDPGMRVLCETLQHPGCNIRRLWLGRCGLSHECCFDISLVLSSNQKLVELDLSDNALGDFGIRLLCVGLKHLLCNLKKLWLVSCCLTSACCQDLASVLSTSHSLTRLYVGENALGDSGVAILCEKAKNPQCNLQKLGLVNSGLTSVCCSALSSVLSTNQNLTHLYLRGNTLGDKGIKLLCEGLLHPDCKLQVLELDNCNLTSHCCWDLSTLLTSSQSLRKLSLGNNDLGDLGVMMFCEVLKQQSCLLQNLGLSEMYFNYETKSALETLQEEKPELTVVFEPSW
Bcl-2-like protein 10, sequence (Q9HD36 whole entry): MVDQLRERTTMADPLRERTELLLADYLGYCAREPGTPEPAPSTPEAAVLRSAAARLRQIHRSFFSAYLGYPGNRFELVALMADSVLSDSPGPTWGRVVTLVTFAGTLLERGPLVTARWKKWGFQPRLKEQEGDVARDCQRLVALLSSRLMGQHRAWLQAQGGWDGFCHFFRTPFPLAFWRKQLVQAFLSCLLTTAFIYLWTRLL

Question: Which results are given for `CCSc1cc(N2CCCC2)nc(-c2ccc(Cl)cc2)n1`?
Answer: IC50 (cells [1]): > 10 µM (inactive); IC50 (MDA-MB-435): > 10 µM (inactive)

Question: For `c1ccc(-c2nn3c(Cn4nnc5ccccc54)nnc3s2)nc1`, which IC50 (Bcl-2-like protein 10) is on record?
Answer: The IC50 was 34.6 µM (active).

Question: What does the source list for `O=C(/C=C/c1ccco1)NC(=S)Nc1cc(-c2nc3ccccc3s2)ccc1Cl`?
Answer: IC50 (SUMO-activating enzyme [2]): 7.42 µM (active); IC50 (SUMO-activating enzyme [3]): 26 µM (active); EC50 [4]: 7.24 µM (active); EC50 [5]: 7.86 µM (active)

Question: With `O=C(Nc1scc(-c2ccccc2)c1C(=O)O)c1ccc(F)cc1` as the molecule, how does the IC50 [6] read?
Answer: The IC50 was 10.3 µM (active).

Question: Which EC50 (cells [7]) does the source give for `O=S(=O)(NCc1ccncc1)c1ccc(Br)s1` here?
Answer: The EC50 was > 29.9 µM (inactive).

Question: And the IC50 [8]?
Answer: Its IC50 is > 80 µM (inactive).

Question: And the IC50 (Galanin receptor type 2)?
Answer: Its IC50 is > 42 µM (not active).

Question: What about the IC50 (Galanin receptor type 3) of the same molecule?
Answer: The IC50 was 2.06 µM (active).

Question: And the AC50 (INS1)?
Answer: The AC50 was 2.91 µM (active).
